Assay results from patent US11717578B2, “Undecylenic acid-based nanocarriers for targeted drug delivery” (University of Cincinnati, priority 2017, dated 2023).

Tested on: Reactive Oxygen Species (ROS)
Assay: DPBF assay of photodynamic and sonodynamic ROS generation
Conditions: complexed with mPEG-UA nanocarrier vesicles
Excerpt: Photodynamic Reactive Oxygen Species (ROS) were generated by irradiation of red/green/blue (RGB) LEDs at 8 mW/cm^2 and detected by the 1,3-diphenylisobenzofuran (DPBF) assay. A photoreactive iron complex (Fe3[diCl-Sal-AHA]3OCH3 Na) from the Baldwin Lab (UC Chemistry) was employed as the photosensitizer and complexed with the mPEG-UA nanocarrier vesicles.

Substance | photodynamic ROS generation (RGB LEDs at 8 mW/cm^2) | sonodynamic ROS generation (sonication at 1.0 MHz, 3 W/cm^2)
Fe3[diCl-Sal-AHA]3OCH3 Na | photodynamic ROS are generated | 
sodium copper chlorophyllin |  | Sonodynamic ROS were generated
